Source: patent publication US10682388B2, “Targeting of PELP1 in cancer therapy” (THE BOARD OF REGENTS OF THE UNIVERSITY OF TEXAS SYSTEM, priority 2014, dated 2020)

Test system: ERE-luciferase in ZRPELP1 cells
Assay: ERE-luciferase reporter gene assay in PELP1 overexpressing cells
Assay type: cell-based, Human
Details: peptide 24 hours, estradiol 12 hours, compared to control TAT, FIGS. 4B, 10
Experimental: FIGS. 4A-E. (FIG. 4A) ZR75vec, ZR75PELP1, MCF7vec and MCF7PELP1 cells were treated in triplicate with TAT, PIP1 or PIP1 deletions (Del1, Del2, Del3) at 10 uM every 3 days and proliferation was measured by MTT assay on day 7. (FIG. 4B) ZRPELP1 cells were transfected with ERE-luciferase and treated with TAT, PIP1, or PIP2 for 24 hours and with estradiol for 12 hours. Relative luciferase activity was measured in triplicate. (FIG. 4C) ZR75 cells were grown in 5% DCC media for 72 hours, treated with TAT or PIP1 every 3 days, and treated with estradiol 10^−7 M for 12 hours. Proliferation was measured in triplicate on day 7 by MTT assay at 595 nm. (FIG. 4D) MCF7-Letrozole resistant cells were grown in 5% DCC media for 72 hours, treated with TAT, PIP1 or PIP2 every 3 days, and letrozole or estradiol 10^−7 M for 12 hours. Proliferation was measured in triplicate on day 7 by MTT assay at 595 nm. (FIG. 4E) MCF7-Tamoxiefn resistant cells were grown in 5% DCC media for 72 hours, treated with TAT, PIP1 or PIP2 every 3 days, and tamoxifen or estradiol 10^−7 M for 12 hours. Proliferation was measured in triplicate on day 7 by MTT assay at 595 nm.
FIG. 10. ERE-luciferase assay. […]
Model cells were seeded in 6-well plates. […] Luciferase activity was measured by using the luciferase assay system (Promega, Madison, Wis.).

GRKKRRQRRRGGMVEFRWSCPGRRKAKA [PIP1]
ERE activation (ERE-luciferase): significantly decreased ERE activation
